What was measured:
Assay in all cases: Cell viability drug screen, 12-point dose-response AUC
Assay type in all cases: cell-based, human
[1] = tested on: AGS; settings: AGS cells (non-SEM subtype); 72 hours
Procedure: (§1) An FDA-approved small-molecule pharmacological compound (#L1300) and an anticancer compound for research (#L2000) were purchased from Selecckchem and a 10 mM solution was prepared in DMSO. A total of 1,345 compounds were tested the cell viability of the seven EMT gastric cancer cell lines.
(§2) Cells cultured for cell-based drug assay were inoculated into a 96-well white optical plate (Corning) at 5×10^3 cells per well. After 24 hours after inoculation, a 2.5 MJT (primary screen) or a half-log 12-serial diluent (secondary screen) of the pharmacological compound contained in DMSO is added to the cells with a robot using a BioMek FXp liquid processor (Beckman) to add to the cells at 50 mM. The final drug concentration in the 5 ns range and the DMSO specification control (0.5%) were calculated. The cells were then further incubated at 37° C. in a 5% CO2 incubator for 72 hours prior to measuring cell viability using the extra-GLO assay kit (Promega). The luminescent properties were measured after 15 min incubation at room temperature using a plate stacker equipped with a plate stacker. The normalized viability for the DMSO-based control was measured to generate a cell line-specific 12-point dose-response curve for each pharmacological compound, and then the area under the curve (AUC) was calculated using a trapezoidal method. […] The results of the repeated experiments were averaged to generate AUC values for each cell line for each compound.

[2] = tested on: Hs746T; settings: Hs746T cells (SEM subtype); 72 hours
Procedure: as §1, §2

[3] = tested on: KATO3; settings: KATO3 cells; 72 hours
Procedure: as §1, §2

[4] = tested on: MKN1; settings: MKN1 cells; 72 hours
Procedure: as §1, §2

[5] = tested on: MKN28; settings: MKN28 cells; 72 hours
Procedure: as §1, §2

[6] = tested on: MKN45; settings: MKN45 cells (non-SEM subtype); 72 hours
Procedure: as §1, §2

[7] = tested on: MKN74; settings: MKN74 cells; 72 hours
Procedure: as §1, §2

[8] = tested on: NCC19; settings: NCC19 cells; 72 hours
Procedure: as §1, §2

[9] = tested on: NCC20; settings: NCC20 cells; 72 hours
Procedure: as §1, §2

[10] = tested on: NCC24; settings: NCC24 cells; 72 hours
Procedure: as §1, §2

[11] = tested on: NCC59; settings: NCC59 cells; 72 hours
Procedure: as §1, §2

[12] = tested on: NCI_N87; settings: NCI_N87 cells; 72 hours
Procedure: as §1, §2

[13] = tested on: OCUM1; settings: OCUM1 cells; 72 hours
Procedure: as §1, §2

[14] = tested on: SK4; settings: SK4 cells (SEM subtype); 72 hours
Procedure: as §1, §2

[15] = tested on: SNU16; settings: SNU16 cells; 72 hours
Procedure: as §1, §2

[16] = tested on: SNU1750; settings: SNU1750 cells (SEM subtype); 72 hours
Procedure: as §1, §2

[17] = tested on: SNU1967; settings: SNU1967 cells; 72 hours
Procedure: as §1, §2

[18] = tested on: SNU1; settings: SNU1 cells; 72 hours
Procedure: as §1, §2

[19] = tested on: SNU216; settings: SNU216 cells (non-SEM subtype); 72 hours
Procedure: as §1, §2

[20] = tested on: SNU484; settings: SNU484 cells (SEM subtype); 72 hours
Procedure: as §1, §2

[21] = tested on: SNU601; settings: SNU601 cells; 72 hours
Procedure: as §1, §2

[22] = tested on: SNU620; settings: SNU620 cells; 72 hours
Procedure: as §1, §2

[23] = tested on: SNU638; settings: SNU638 cells; 72 hours
Procedure: as §1, §2

[24] = tested on: SNU668; settings: SNU668 cells (SEM subtype); 72 hours
Procedure: as §1, §2

[25] = tested on: SNU719; settings: SNU719 cells; 72 hours
Procedure: as §1, §2

[26] = tested on: YCC11; settings: YCC11 cells (SEM subtype); 72 hours
Procedure: as §1, §2

[27] = tested on: YCC2; settings: YCC2 cells; 72 hours
Procedure: as §1, §2

[28] = tested on: YCC3; settings: YCC3 cells; 72 hours
Procedure: as §1, §2

[29] = tested on: FU97; design: Average Area Under the Viability Curve (AUC), AUC norm value: scale not given here; settings: FU97 cells; 72 hours
Procedure: Cells cultured for cell-based drug assay were inoculated into a 96-well white optical plate (Corning) at 5×10^3 cells per well. After 24 hours after inoculation, a 2.5 MJT (primary screen) or a half-log 12-serial diluent (secondary screen) of the pharmacological compound contained in DMSO is added to the cells with a robot using a BioMek FXp liquid processor (Beckman) to add to the cells at 50 mM. The final drug concentration in the 5 ns range and the DMSO specification control (0.5%) were calculated. The cells were then further incubated at 37° C. in a 5% CO2 incubator for 72 hours prior to measuring cell viability using the extra-GLO assay kit (Promega). The luminescent properties were measured after 15 min incubation at room temperature using a plate stacker equipped with a plate stacker. The normalized viability for the DMSO-based control was measured to generate a cell line-specific 12-point dose-response curve for each pharmacological compound, and then the area under the curve (AUC) was calculated using a trapezoidal method.

| SMILES | Average Area Under the Viability Curve (AUC), AUC norm value [1] | Average Area Under the Viability Curve (AUC), AUC norm value [2] | Average Area Under the Viability Curve (AUC), AUC norm value [3] | Average Area Under the Viability Curve (AUC), AUC norm value [4] | Average Area Under the Viability Curve (AUC), AUC norm value [5] | Average Area Under the Viability Curve (AUC), AUC norm value [6] | Average Area Under the Viability Curve (AUC), AUC norm value [7] | Average Area Under the Viability Curve (AUC), AUC norm value [8] | Average Area Under the Viability Curve (AUC), AUC norm value [9] | Average Area Under the Viability Curve (AUC), AUC norm value [10] | Average Area Under the Viability Curve (AUC), AUC norm value [11] | Average Area Under the Viability Curve (AUC), AUC norm value [12] | Average Area Under the Viability Curve (AUC), AUC norm value [13] | Average Area Under the Viability Curve (AUC), AUC norm value [14] | Average Area Under the Viability Curve (AUC), AUC norm value [15] | Average Area Under the Viability Curve (AUC), AUC norm value [16] | Average Area Under the Viability Curve (AUC), AUC norm value [17] | Average Area Under the Viability Curve (AUC), AUC norm value [18] | Average Area Under the Viability Curve (AUC), AUC norm value [19] | Average Area Under the Viability Curve (AUC), AUC norm value [20] | also measured |
| --- | --- | --- | --- | --- | --- | --- | --- | --- | --- | --- | --- | --- | --- | --- | --- | --- | --- | --- | --- | --- | --- |
| Cc1ccc(S(=O)(=O)/C=C/C#N)cc1 [BAY 11-7082 (BAY 11-7821), BAY 11-7082] | −0.5085 | −0.5796 | 0.7229 | −0.3248 | −0.1987 | 0.194 | 0.03633 | −0.07527 | −0.8287 | 0.8357 | 1.031 | 0.5073 | 0.7491 | −0.7659 | −0.6715 | −1.012 | −0.8028 | 1.33 | 0.3865 | −0.4504 | Average Area Under the Viability Curve (AUC), AUC norm value [21]: 0.7218; Average Area Under the Viability Curve (AUC), AUC norm value [22]: −0.1923; Average Area Under the Viability Curve (AUC), AUC norm value [23]: −1.497; Average Area Under the Viability Curve (AUC), AUC norm value [24]: 0.8081; Average Area Under the Viability Curve (AUC), AUC norm value [25]: 1.377; Average Area Under the Viability Curve (AUC), AUC norm value [26]: −1.538; Average Area Under the Viability Curve (AUC), AUC norm value [27]: 0; Average Area Under the Viability Curve (AUC), AUC norm value [28]: 0.7116; Average Area Under the Viability Curve (AUC), AUC norm value [29]: 0.0931 |
| CC[C@@H]1C(=O)N(C)c2cnc(Nc3ccc(C(=O)N[C@H]4CC[C@H](N5CCN(CC6CC6)CC5)CC4)cc3OC)nc2N1C(C)C [BI6727 (Volasertib), Volasertib] | −1.0975 | 2.378 | 3.3921 | −0.162 | −1.335 | 0.5875 | −0.01134 | 3.256 | 0.5594 | −0.9502 | 3.198 | −0.3929 | 2.405 | −0.9263 | 0 | −0.5962 | −0.1645 | −0.487 | 1.868 | −0.03282 | Average Area Under the Viability Curve (AUC), AUC norm value [21]: 0.4757; Average Area Under the Viability Curve (AUC), AUC norm value [22]: −0.4098; Average Area Under the Viability Curve (AUC), AUC norm value [23]: 0.3626; Average Area Under the Viability Curve (AUC), AUC norm value [24]: 0.1516; Average Area Under the Viability Curve (AUC), AUC norm value [25]: 3.74; Average Area Under the Viability Curve (AUC), AUC norm value [26]: −0.7997; Average Area Under the Viability Curve (AUC), AUC norm value [27]: −0.09826; Average Area Under the Viability Curve (AUC), AUC norm value [28]: 3.488; Average Area Under the Viability Curve (AUC), AUC norm value [29]: 0.3078 |

Source: US20250129430A1, “HIGH ATP-AFFINITY PROTEIN AS THERAPEUTIC TARGET FOR INTRACTABLE CANCER MOLECULAR SUBTYPES AND INHIBITOR THEREOF” (VeraVerse Co., Ltd., priority 2021, published 2025)
